Test [1] deals with T1, 5-hydroxytryptamine receptor 1A (Rattus norvegicus, UniProt P19327).
T1 sequence (P19327 whole entry): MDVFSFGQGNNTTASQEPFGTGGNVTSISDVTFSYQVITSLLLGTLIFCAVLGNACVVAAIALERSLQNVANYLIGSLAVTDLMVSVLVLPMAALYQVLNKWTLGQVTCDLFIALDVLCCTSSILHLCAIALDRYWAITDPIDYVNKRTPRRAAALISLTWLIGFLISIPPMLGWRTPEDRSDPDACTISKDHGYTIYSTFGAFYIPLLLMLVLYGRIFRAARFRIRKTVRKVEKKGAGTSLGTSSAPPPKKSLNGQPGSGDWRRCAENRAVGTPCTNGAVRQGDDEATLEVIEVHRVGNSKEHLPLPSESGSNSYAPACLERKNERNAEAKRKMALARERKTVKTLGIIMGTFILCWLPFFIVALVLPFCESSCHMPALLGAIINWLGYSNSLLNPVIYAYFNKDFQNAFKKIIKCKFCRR
As to the kind of experiment: (§1) Concentration necessary to achieve half maximal inhibition of [3H]8-Hydroxy-2-(di-n-propylamino)tetralin binding to 5-hydroxytryptamine 1A receptor at 1 uM.

Test [2] deals with 5-hydroxytryptamine receptor 1B (Rattus norvegicus) (UniProt P28564). As to the kind of experiment: (§2) Concentration necessary to achieve half maximal inhibition of [125I]- Iodocyanopindolol binding to 5-hydroxytryptamine 1B receptor at 1 uM.
Test [3] deals with T2, Serotonin 2 (5-HT2) receptor (Rattus norvegicus, UniProt P30994+P08909+P14842). As to the kind of experiment: (§3) Concentration necessary to achieve half maximal inhibition of [3H]ketanserin binding to 5-hydroxytryptamine 2 receptor at 1 uM. The test is classed as protein assay.
The target in test [4] is T3, Alpha-2A adrenergic receptor (Bos taurus, UniProt Q28838).
T3 sequence (Q28838 whole entry): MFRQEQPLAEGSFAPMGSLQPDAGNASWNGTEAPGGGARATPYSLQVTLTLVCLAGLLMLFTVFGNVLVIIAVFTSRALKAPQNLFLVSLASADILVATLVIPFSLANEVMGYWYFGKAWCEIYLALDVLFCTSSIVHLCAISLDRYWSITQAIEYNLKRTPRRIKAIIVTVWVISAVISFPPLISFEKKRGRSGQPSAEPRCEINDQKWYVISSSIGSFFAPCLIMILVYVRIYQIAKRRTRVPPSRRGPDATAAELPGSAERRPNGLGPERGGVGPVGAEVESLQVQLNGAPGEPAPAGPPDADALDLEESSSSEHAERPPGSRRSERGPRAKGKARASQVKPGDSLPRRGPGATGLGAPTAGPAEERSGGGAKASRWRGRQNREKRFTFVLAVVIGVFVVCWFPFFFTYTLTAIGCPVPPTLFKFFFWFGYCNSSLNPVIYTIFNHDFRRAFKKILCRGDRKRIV
As to the kind of experiment: Concentration necessary to achieve half maximal inhibition of [3H]clonidine binding to alpha-2 adrenergic receptor at 1 uM.

Test [5] deals with T4, Dopamine receptor (Bos taurus, UniProt Q95136+P20288). As to the kind of experiment: (§4) Concentration necessary to achieve half maximal inhibition of [3H](+)-[…]-6,7-dihydroxy-1,2,3,4-tetrahydronaphthalene binding to dopamine receptor at 1 uM. Type of test: protein assay.
For test [6], the target named is T4, Dopamine receptor. Description: (§5) Concentration necessary to achieve half maximal inhibition of [3H]spiperone binding dopamine receptor at 1 uM. Type of test: protein assay.
Test [7] concerns the target T5, 5-hydroxytryptamine receptor 1A (Rattus norvegicus) (UniProt P19327).
T5 sequence (whole entry): T1 sequence (P19327 whole entry)
Described as §1.

Test [8] has as its target T6, Serotonin 2 (5-HT2) receptor (Rattus norvegicus) (UniProt P30994+P08909+P14842). The description is as §3. The test is classed as protein assay.
Test [9] concerns the target T7, Dopamine receptor (Bos taurus) (UniProt Q95136+P20288). The description is as §5. Type of test: protein assay.
Test [10] has as its target T7, Dopamine receptor (Bos taurus). The description is as §4. The test is classed as protein assay.
Test [11] addresses T2, Serotonin 2 (5-HT2) receptor. Description: Concentration necessary to achieve half maximal inhibition of [3H]-ketanserin binding to 5-hydroxytryptamine 2 receptor. Type of test: protein assay.
The target in test [12] is T8, Alpha-2A adrenergic receptor (Bos taurus) (UniProt Q28838).
T8 sequence (whole entry): T3 sequence (Q28838 whole entry)
As to the kind of experiment: Concentration necessary to achieve half maximal inhibition of [3H]clonidine binding to alpha-2 adrenergic receptorat 1 uM.

The target in test [13] is T6, Serotonin 2 (5-HT2) receptor (Rattus norvegicus). Description: (§6) Concentration necessary to achieve half maximal inhibition of [3H]ketanserin, binds to 5-hydroxytryptamine 2 receptor at 1 uM. Type of test: protein assay.
Test [14] concerns the target T9, 5-hydroxytryptamine receptor 1B (Rattus norvegicus, UniProt P28564). Description: Concentration necessary to achieve half maximal inhibition of [125I]- Iodocyanopindolol, binds to 5-hydroxytryptamine 1B receptor at 1 uM.
Test [15] concerns the target T2, Serotonin 2 (5-HT2) receptor. The test is described as §6. Type of test: protein assay.
The target of test [16] is T9, 5-hydroxytryptamine receptor 1B. Described as §2.
For test [17], the target named is T3, Alpha-2A adrenergic receptor.
Description: Concentration necessary to achieve half maximal inhibition of [3H]clonidine binding to Alpha-2 adrenergic receptor at 1 uM

T6 sequence (P08909 whole entry, looked up): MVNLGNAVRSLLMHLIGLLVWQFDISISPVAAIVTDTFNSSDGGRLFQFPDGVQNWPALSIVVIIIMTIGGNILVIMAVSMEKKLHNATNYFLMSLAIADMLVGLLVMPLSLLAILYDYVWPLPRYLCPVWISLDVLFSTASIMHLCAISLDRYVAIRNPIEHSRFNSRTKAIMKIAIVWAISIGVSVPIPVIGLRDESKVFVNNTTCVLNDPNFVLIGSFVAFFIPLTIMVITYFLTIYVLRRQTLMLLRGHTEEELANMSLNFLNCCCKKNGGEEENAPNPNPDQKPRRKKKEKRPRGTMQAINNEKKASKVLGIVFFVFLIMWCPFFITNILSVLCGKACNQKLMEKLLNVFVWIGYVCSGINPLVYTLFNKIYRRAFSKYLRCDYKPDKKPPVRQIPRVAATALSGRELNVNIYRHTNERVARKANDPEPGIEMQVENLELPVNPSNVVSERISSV
T6 sequence (P14842 whole entry, looked up): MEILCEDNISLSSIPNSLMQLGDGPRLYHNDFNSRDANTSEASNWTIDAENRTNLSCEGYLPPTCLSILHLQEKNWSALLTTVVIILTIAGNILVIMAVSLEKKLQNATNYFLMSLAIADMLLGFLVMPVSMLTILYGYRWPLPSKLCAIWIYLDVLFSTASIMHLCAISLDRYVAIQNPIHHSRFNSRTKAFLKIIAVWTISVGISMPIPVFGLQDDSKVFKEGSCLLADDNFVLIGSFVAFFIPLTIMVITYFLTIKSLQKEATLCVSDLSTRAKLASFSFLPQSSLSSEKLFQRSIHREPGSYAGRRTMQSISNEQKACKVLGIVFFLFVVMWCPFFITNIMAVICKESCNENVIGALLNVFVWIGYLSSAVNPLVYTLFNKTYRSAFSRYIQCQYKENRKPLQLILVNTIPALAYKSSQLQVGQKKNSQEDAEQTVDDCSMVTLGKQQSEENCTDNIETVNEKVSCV
T6 sequence (P30994 whole entry, looked up): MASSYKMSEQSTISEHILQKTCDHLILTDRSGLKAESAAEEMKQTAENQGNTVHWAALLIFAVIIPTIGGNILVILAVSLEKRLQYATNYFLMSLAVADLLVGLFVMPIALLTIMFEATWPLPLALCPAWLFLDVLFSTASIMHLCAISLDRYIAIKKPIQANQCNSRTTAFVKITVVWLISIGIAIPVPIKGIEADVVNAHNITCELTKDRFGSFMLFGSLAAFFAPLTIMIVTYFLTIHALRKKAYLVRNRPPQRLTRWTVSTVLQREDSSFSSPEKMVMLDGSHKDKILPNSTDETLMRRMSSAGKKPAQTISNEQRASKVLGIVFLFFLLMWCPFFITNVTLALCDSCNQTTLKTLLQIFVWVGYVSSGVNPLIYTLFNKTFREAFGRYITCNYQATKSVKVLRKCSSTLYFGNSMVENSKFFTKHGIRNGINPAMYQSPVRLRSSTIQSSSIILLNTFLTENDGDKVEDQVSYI
T9 sequence (P28564 whole entry): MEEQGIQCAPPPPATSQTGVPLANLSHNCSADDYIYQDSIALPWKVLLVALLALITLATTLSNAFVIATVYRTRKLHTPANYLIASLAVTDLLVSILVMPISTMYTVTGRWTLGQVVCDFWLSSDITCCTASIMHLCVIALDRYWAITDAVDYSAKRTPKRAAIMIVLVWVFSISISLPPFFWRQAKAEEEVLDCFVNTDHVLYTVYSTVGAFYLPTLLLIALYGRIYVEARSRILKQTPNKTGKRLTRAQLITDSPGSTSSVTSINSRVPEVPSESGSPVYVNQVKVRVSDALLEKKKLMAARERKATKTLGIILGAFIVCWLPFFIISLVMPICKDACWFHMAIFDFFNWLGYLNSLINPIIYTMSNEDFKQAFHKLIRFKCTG
5-hydroxytryptamine receptor 1B (Rattus norvegicus), sequence (P28564 whole entry): as above

Turning to `CCCN1CCC[C@@H]2c3cccc(O)c3OC[C@H]21`, the IC50 in test [1] turned out to be 1000 nM; in test [3], 1100 nM; in [4] it was 77 nM; on Dopamine receptor [5] it was 30 nM; on Dopamine receptor [6], 260 nM. In addition, the Change in test [2] is -2%.
Turning to `CN1CCC=C2c3cc(O)ccc3OCC21` (stereo unspecified), the Change was -42% in test [7], -6% in [2] and -32% in [8]. In addition, the IC50 at Dopamine receptor [5] was found to be 20 nM. This compound also had an inhibition in test [9] of 3%.
For `CCCN1CCC=C2c3ccccc3OCC21` (stereo unspecified), the IC50 in test [1] was found to be 74 nM; in [4], 208 nM. The Change is -11% in test [2], -22% in test [8], -15% in [10] and -13% in test [9].
Turning to `Cc1ccc(O)c2c1[C@H]1CCCN(C)[C@@H]1CO2`, the IC50 in [1] stood at 76 nM; in test [11] it was 97 nM; in [4], 1020 nM; on Dopamine receptor [5] it was 26 nM; on Dopamine receptor [6], 170 nM. The Change in test [2] is -10%.
`COc1ccc(C)c2c1OC[C@@H]1[C@@H]2CCCN1C` showed an IC50 in test [1] of 19 nM. Also, the Change was -35% in [2]; -44% in test [8]; -12% in [12]; -6% in test [10]; -15% in [9].
For the compound `CCCCN1CCC[C@@H]2c3cccc(O)c3OC[C@H]21`, the IC50 in test [1] worked out at 1200 nM; in [4] it was 39 nM; at Dopamine receptor [5] it was 8 nM; on Dopamine receptor [6], 260 nM. The figures for the Change in [2] and in [13] were 0% and -40%, respectively.
In the case of `CCCN1CCC=C2c3c(OC)cccc3OCC21` (stereo unspecified), the IC50 stood at 1.8 nM in [1], 1320 nM in [14], 839 nM in test [15] and 151 nM in test [4]. Moreover, the Change in test [10] is -13%; in test [9], -36%.
Turning to `CCCN1CCC=C2c3cc(O)ccc3OCC21` (stereo unspecified), the IC50 stood at 244 nM in test [1], 634 nM in test [4], 51 nM on Dopamine receptor [5] and 4190 nM at Dopamine receptor [6]. Moreover, the figures for the Change in test [2] and in test [8] were 0% and -14%, respectively.
`CCCN1CCC[C@@H]2c3c(O)cccc3OC[C@H]21`: the values for the IC50 in test [1], in test [3] and in test [4] were 4 nM, 384 nM and 362 nM, respectively. Besides, the Change in test [2] was -4%; in test [10], -12%; in test [9], -23%.
Turning to `CCCN1CCC=C2c3cccc(O)c3OCC21` (stereo unspecified), the Change in [7] was -36%; in test [2] it was -1%; in test [8], -14%; in test [12], -34%; in test [10], -10%; in test [9], -17%.
For the compound `COc1cccc2c1OC[C@@H]1[C@@H]2CCCN1C`, the IC50 amounted to 253 nM in test [1] and 920 nM in test [3]. The same compound registered an inhibition in test [2] of 7%. In addition, the Change was -24% in test [12], -23% in test [10] and -22% in [9].
`CN(C)CCCSc1ccccc1NC(=O)/C=C/c1ccccc1` [CINANSERIN]: the IC50 in test [3] was found to be 2 nM. This lies in the single-digit nanomolar range.
For `COc1cc(C)cc2c1[C@H]1CCCN(C)[C@@H]1CO2`, the IC50 in [1] is 75 nM; in [16] it was 825 nM; in [3], 42 nM; in test [4], 946 nM. Further, the Change was -11% in [10] and -39% in test [9].
For the compound `CCCN1CCC[C@@H]2c3cc(O)ccc3OC[C@H]21`, the IC50 in [1] is 1210 nM; in test [4] it was 559 nM; at Dopamine receptor [5] it was 9 nM; on Dopamine receptor [6], 1260 nM. Moreover, the Change in test [2] was -1%; in test [8] it was -30%.
On to `CN1CCC[C@@H]2c3cc(O)ccc3OC[C@H]21`, for which the Change is -13% in test [7], 6% in test [2], -27% in test [8] and -64% in [12]. The IC50 is 114 nM at Dopamine receptor [5] and 4080 nM on Dopamine receptor [6].
Regarding `CCCN1CCC[C@@H]2c3c(OC)cccc3OC[C@H]21`, the half-inhibitory concentration (IC50) in test [1] was determined as 9 nM; in [3], 114 nM; in test [4], 71 nM. Further, the Change was -19% in test [2], -9% in test [10] and -53% in [9].
For `CCCN1CCC[C@@H]2c3ccc(O)cc3OC[C@H]21`, the Change in [7] was -17%; in test [2], -1%; in test [8] it was -14%. Moreover, the IC50 in [4] was 249 nM; on Dopamine receptor [5], 16 nM; on Dopamine receptor [6], 4830 nM.
For the compound `CCCN1CCC[C@@H]2c3c(OC)cc(C)cc3OC[C@H]21`, the IC50 was 186 nM in test [1], 86 nM in test [15] and 504 nM in [4]. Besides, the Change in [2] was -31%; in test [10] it was -15%; in test [9] it was -36%.
In [16], `FC(F)(F)c1cccc(N2CCNCC2)c1` showed an IC50 of 51 nM. In other words, the double-digit nanomolar range.
`CCCN1CCC[C@@H]2c3ccccc3OC[C@H]21`: the IC50 is 219 nM in test [1], 178 nM in [15] and 88 nM in [4]. The Change in [2] was -10%; in test [10], -24%; in test [9], -19%.
In the case of `CN1CCC[C@@H]2c3cccc(O)c3OC[C@H]21`, the Change in test [7] is -45%; in [2], -2%; in [12], -41%; in test [9], -46%. For the same compound, the IC50 in [3] stood at 1260 nM; at Dopamine receptor [5], 11 nM.
`Clc1cccc(Cl)c1N=C1NCCN1` [CLONIDINE] had an IC50 in test [17] of 2 nM. This counts as single-digit nanomolar.

As a reminder, the IC50 is the concentration at which inhibition is half-maximal. As usually defined, the inhibition is the relative decrease from the control value, in per cent. Read a high inhibition as a response far below the control.
